Eight molecules from patent US20050282743A1, “Molecular interactions in cells” (Arbor Vita Corporation, priority 2001, published 2005) can be followed below.

The structures appear in SMILES notation. Read-outs that look alike come from different tables or passages of the source. Peptide text beside a SMILES is read from it. * marks the point of attachment. Biotin = O=C1N[C@H]2[C@H](CS[C@H]2CCCCC(=O)*)N1

Common to all, as to assay: Apparent affinity (Kd) by titration of PL peptide in the G assay
Format in all cases: binding

Test [1] deals with T1, PDZ-domain polypeptide (GST/PDZ fusion protein) (Homo sapiens, UniProt Q6P0Q8).
T1 construct: made in house; host or cells: E. coli (DH5alpha, BL21 or JM109)
T1 sequence (Q6P0Q8 whole entry, the tested form may be a part): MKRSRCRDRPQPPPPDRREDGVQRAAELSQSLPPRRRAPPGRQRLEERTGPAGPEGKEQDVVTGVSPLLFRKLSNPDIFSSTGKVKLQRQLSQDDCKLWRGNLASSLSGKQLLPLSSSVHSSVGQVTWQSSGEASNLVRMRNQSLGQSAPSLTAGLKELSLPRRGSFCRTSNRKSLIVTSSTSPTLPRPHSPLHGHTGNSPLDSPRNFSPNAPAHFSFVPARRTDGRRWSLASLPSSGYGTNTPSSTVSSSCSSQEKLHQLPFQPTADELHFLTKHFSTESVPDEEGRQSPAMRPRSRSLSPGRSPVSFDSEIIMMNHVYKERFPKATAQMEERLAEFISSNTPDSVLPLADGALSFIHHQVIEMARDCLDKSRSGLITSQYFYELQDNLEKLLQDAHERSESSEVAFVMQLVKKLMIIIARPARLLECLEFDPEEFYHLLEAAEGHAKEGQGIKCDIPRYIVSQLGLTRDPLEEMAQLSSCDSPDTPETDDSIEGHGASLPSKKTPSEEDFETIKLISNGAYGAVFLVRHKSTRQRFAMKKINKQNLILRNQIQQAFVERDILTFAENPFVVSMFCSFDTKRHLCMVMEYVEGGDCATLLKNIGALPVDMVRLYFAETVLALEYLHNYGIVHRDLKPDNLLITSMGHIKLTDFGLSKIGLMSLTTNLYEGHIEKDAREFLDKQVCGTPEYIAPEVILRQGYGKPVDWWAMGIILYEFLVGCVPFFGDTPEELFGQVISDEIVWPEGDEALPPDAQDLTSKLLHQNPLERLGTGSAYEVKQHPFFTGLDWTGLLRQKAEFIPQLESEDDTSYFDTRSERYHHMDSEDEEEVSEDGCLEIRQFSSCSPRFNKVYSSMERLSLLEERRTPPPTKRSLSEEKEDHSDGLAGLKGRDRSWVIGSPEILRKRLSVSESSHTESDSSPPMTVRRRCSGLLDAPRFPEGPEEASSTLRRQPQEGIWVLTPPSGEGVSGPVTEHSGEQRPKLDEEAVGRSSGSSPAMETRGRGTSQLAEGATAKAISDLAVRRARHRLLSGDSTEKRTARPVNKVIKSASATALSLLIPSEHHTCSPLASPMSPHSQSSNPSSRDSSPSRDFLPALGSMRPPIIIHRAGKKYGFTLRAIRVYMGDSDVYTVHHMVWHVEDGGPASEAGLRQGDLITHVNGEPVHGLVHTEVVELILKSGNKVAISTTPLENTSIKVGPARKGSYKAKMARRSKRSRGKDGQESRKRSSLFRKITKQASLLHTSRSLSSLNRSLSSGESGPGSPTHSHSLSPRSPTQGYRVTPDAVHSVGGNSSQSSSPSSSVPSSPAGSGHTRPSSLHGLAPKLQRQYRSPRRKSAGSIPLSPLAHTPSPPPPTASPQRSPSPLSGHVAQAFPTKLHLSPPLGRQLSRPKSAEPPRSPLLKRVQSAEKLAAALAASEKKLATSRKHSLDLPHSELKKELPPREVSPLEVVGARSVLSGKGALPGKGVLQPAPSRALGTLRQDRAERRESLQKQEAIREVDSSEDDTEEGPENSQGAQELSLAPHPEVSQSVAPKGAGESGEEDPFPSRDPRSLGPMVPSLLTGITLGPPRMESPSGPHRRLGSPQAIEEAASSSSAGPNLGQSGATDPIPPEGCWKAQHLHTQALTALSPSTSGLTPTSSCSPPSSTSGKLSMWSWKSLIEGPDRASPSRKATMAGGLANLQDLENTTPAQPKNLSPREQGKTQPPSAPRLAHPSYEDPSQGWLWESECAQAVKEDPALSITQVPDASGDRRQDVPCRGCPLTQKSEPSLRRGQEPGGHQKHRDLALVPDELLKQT
In outline:
(§1)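 A fixed concentration of GST/PDZ fusion protein, 5 ug/ml by default, was mixed in solution with increasing labeled PL peptide (e.g. 0.1 uM-1 mM). Reaction times ranged from 10 minutes to 2 days at 4-37° C. Complexes were separated from free peptide and detected via the label as in the G assay, apparent affinity coming from the saturating concentration.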

The target of test [2] is T2, PDZ-domain polypeptide (GST/PDZ fusion protein) (Homo sapiens, UniProt Q86UL8).
T2 construct: made in house; host or cells: E. coli (DH5alpha, BL21 or JM109)
Conditions: PDZ atrophin-1 interacting Protein. In outline:
as §1

In test [3] the target is T3, PDZ-domain polypeptide (GST/PDZ fusion protein) (Homo sapiens, UniProt Q02410).
T3 construct: made in house; host or cells: E. coli (DH5alpha, BL21 or JM109)
T3 sequence (Q02410 1-837): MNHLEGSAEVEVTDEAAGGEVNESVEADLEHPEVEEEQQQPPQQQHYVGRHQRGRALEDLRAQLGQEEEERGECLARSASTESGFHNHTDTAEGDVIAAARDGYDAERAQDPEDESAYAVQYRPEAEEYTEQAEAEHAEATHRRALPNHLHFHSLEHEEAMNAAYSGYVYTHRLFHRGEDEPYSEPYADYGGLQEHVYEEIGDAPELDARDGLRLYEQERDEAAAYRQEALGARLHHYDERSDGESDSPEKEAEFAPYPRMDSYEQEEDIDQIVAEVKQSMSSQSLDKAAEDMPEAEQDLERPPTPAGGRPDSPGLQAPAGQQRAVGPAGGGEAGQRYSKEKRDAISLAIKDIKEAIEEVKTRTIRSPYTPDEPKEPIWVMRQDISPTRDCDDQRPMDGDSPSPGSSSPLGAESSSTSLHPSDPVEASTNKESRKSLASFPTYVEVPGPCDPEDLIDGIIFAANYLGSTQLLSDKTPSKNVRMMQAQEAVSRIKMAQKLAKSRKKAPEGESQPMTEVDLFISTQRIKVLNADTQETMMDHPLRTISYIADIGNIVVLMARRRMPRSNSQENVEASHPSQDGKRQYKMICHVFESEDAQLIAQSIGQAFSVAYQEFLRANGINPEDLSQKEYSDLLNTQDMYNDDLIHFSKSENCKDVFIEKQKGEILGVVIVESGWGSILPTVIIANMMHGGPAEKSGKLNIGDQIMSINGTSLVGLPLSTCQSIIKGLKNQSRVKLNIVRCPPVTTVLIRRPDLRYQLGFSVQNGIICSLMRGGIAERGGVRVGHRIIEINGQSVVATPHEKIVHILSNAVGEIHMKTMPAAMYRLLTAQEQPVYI
In outline: as §1

The target of test [4] is T4, PDZ-domain polypeptide (GST/PDZ fusion protein) (Homo sapiens, UniProt O75970).
T4 construct: made in house; host or cells: E. coli (DH5alpha, BL21 or JM109)
T4 sequence (O75970 whole entry, the tested form may be a part): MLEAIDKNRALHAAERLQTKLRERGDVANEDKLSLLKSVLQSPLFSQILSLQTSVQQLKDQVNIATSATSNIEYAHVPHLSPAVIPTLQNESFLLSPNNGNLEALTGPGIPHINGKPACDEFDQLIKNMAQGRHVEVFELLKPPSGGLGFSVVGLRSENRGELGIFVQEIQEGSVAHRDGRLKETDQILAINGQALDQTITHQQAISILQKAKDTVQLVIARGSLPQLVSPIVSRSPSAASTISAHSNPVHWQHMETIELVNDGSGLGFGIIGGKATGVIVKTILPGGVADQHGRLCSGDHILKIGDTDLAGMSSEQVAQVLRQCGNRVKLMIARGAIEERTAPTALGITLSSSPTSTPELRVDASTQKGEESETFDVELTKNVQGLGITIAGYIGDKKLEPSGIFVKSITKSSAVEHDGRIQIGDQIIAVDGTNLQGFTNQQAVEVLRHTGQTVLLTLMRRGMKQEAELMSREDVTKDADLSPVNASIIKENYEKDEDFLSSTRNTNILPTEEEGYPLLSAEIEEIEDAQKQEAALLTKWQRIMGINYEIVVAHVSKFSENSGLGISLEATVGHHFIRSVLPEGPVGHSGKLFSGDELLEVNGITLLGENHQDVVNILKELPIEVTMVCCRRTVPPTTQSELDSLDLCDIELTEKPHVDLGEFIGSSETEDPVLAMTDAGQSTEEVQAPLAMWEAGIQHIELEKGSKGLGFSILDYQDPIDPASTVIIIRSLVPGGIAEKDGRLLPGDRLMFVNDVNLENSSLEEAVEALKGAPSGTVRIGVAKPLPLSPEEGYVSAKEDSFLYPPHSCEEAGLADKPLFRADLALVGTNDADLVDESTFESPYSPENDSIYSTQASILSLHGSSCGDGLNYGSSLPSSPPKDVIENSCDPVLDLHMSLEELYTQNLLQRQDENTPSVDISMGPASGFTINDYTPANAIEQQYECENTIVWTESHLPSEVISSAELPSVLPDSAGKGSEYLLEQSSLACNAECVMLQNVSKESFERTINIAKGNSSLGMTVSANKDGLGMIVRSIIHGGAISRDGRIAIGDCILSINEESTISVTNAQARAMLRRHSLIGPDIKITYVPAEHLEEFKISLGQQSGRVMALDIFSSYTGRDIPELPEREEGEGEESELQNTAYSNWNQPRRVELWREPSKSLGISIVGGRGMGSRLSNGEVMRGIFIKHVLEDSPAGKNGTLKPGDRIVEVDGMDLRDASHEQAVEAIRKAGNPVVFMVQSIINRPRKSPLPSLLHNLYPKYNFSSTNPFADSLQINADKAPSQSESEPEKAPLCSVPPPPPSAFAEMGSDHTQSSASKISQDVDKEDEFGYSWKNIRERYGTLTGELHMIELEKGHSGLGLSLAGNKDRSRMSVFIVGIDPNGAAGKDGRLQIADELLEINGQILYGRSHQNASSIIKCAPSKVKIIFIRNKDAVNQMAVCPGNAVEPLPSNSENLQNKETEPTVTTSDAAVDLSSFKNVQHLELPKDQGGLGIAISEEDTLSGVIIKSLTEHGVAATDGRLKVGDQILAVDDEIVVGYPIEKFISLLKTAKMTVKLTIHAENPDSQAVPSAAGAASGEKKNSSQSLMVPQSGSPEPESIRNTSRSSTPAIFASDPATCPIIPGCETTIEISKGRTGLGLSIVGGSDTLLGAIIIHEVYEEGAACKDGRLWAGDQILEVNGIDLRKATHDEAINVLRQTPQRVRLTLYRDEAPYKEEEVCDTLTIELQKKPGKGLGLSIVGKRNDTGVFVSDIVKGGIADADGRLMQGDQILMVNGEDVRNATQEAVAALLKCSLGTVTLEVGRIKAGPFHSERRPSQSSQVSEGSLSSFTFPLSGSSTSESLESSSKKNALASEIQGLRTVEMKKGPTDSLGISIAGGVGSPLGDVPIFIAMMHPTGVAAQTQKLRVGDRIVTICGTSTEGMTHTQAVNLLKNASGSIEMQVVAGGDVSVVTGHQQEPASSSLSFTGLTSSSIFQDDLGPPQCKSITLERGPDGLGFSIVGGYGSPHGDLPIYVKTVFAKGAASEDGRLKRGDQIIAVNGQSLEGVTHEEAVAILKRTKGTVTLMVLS
The method, boiled down:
as §1

Setting [5] is: PDZ KIAA0807(S), PDZ Domain 1, read-out: Peptide Optimal Conc (Kd by titration of the PL peptide).

As to `CC(C)C[C@H](NC(=O)[C@H](Cc1c[nH]c2ccccc12)NC(=O)[C@H](Cc1c[nH]cn1)NC(=O)[C@H](CCCNC(=N)N)NC(=O)[C@H](CC(C)C)NC(=O)[C@@H](NC(=O)[C@H](Cc1ccccc1)NC(=O)[C@H](CCC(N)=O)NC(=O)[C@H](CCCNC(=N)N)NC(=O)[C@@H](NC(=O)[C@H](CCC(=O)O)NC(=O)CNC(=O)[C@H](CCCNC(=N)N)NC(=O)[C@H](CC(=O)O)NC(=O)[C@@H](NC(=O)[C@H](CC(C)C)NC(=O)[C@H](CCC(=O)O)NC(=O)[C@H](CCCNC(=N)N)NC(=O)CCCC[C@@H]1SC[C@@H]2NC(=O)N[C@@H]21)C(C)C)C(C)C)[C@@H](C)O)C(=O)N[C@@H](CCCCN)C(=O)N[C@H](C(=O)O)C(C)C` [Dopamine transporter (Na+-dependent)] (Biotin-RELVDRGEVRQFTLRHWLKV-OH; C-terminus assumed), the Kd in test [1] (setting [5]) turned out to be 400 nM; in test [1] (PDZ KIAA807, read-out: Peptide Optimal Conc (Kd by titration of the PL peptide)) it was 400 nM.

As to `CC(C)C[C@H](NC(=O)CNC(=O)[C@@H](NC(=O)[C@H](CO)NC(=O)[C@H](CC(N)=O)NC(=O)[C@H](Cc1ccccc1)NC(=O)CNC(=O)[C@H](C)NC(=O)[C@H](C)NC(=O)[C@H](Cc1ccccc1)NC(=O)[C@@H](NC(=O)CCCC[C@@H]1SC[C@@H]2NC(=O)N[C@@H]21)[C@@H](C)O)[C@@H](C)O)C(=O)N1CCC[C@H]1C(=O)N[C@@H](Cc1c[nH]cn1)C(=O)N[C@@H](CO)C(=O)N[C@H](C(=O)N[C@H](C(=O)N[C@@H](CCCNC(=N)N)C(=O)N[C@H](C(=O)O)C(C)C)[C@@H](C)O)[C@@H](C)O` [Neuroligin] (Biotin-TFAAGFNSTGLPHSTTRV-OH; C-terminus assumed), the Kd in test [2] (PDZ Domain 1, read-out: Peptide Optimal Conc (Kd by titration of the PL peptide)) is 250 nM.

`CC[C@H](C)[C@H](NC(=O)[C@H](Cc1ccc(O)cc1)NC(=O)[C@@H](NC(=O)[C@@H]1CCCN1C(=O)[C@H](CCC(N)=O)NC(=O)[C@H](CCC(=O)O)NC(=O)[C@H](CCC(N)=O)NC(=O)[C@H](C)NC(=O)[C@@H](NC(=O)[C@H](CC(C)C)NC(=O)[C@H](CC(C)C)NC(=O)[C@H](CCCNC(=N)N)NC(=O)[C@H](Cc1ccc(O)cc1)NC(=O)[C@H](CCSC)NC(=O)[C@H](C)NC(=O)[C@H](C)NC(=O)[C@@H]1CCCN1C(=O)[C@H](CCSC)NC(=O)[C@@H](NC(=O)[C@H](CCCCN)NC(=O)CCCC[C@@H]1SC[C@@H]2NC(=O)N[C@@H]21)[C@@H](C)O)[C@@H](C)O)C(C)C)C(=O)O` [MINT-1] (Biotin-KTMPAAMYRLLTAQEQPVYI-OH; C-terminus assumed): the Kd in test [3] (PDZ Mint 1, PDZ Domain 1, titration of the PL peptide, read-out: Peptide Optimal Conc (Kd, dissociation constant)) is 2000 nM; in test [4] (PDZ MUPP-1, PDZ Domain 7, titration of the PL peptide, read-out: Peptide Optimal Conc (Kd, dissociation constant)), 1500 nM.

Regarding `CC[C@H](C)[C@H](NC(=O)[C@H](CCCCN)NC(=O)[C@@H](NC(=O)[C@H](CO)NC(=O)[C@@H]1CCCN1C(=O)[C@H](Cc1ccccc1)NC(=O)[C@@H](NC(=O)[C@@H](NC(=O)[C@H](CCCNC(=N)N)NC(=O)[C@H](CCC(=O)O)NC(=O)[C@H](CC(C)C)NC(=O)[C@H](CC(C)C)NC(=O)[C@H](CC(C)C)NC(=O)[C@@H](NC(=O)CNC(=O)[C@@H](NC(=O)CCCC[C@@H]1SC[C@@H]2NC(=O)N[C@@H]21)C(C)C)[C@@H](C)O)C(C)C)[C@@H](C)CC)C(C)C)C(=O)N[C@@H](C)C(=O)N[C@H](C(=O)N[C@@H](CC(C)C)C(=O)N[C@H](C(=O)O)C(C)C)[C@@H](C)O` [Adenovirus E4 Type9], the Kd worked out at 20 nM in test [2] (PDZ Domain 1, Protein Optimal Conc 0.5, read-out: Peptide Optimal Conc (Kd by titration of the PL peptide)); 100 nM in test [2] (PDZ Domain 3, Protein Optimal Conc 5, read-out: Peptide Optimal Conc (Kd by titration of the PL peptide)); 200 nM in test [1] (PDZ KIAA0807(S), PDZ Domain 1, Protein Optimal Conc 5, read-out: Peptide Optimal Conc (Kd by titration of the PL peptide)); 100 nM in test [4] (PDZ MUPP-1, PDZ Domain 11, Protein Optimal Conc 5, read-out: Peptide Optimal Conc (Kd by titration of the PL peptide)).

On to `CSCC[C@H](NC(=O)[C@H](C)NC(=O)[C@H](CCCNC(=N)N)NC(=O)CNC(=O)[C@@H](NC(=O)[C@H](Cc1c[nH]c2ccccc12)NC(=O)[C@H](CCCNC(=N)N)NC(=O)CNC(=O)CCCC[C@@H]1SC[C@@H]2NC(=O)N[C@@H]21)[C@@H](C)O)C(=O)N[C@@H](CO)C(=O)N[C@@H](C)C(=O)N[C@@H](Cc1c[nH]c2ccccc12)C(=O)N[C@@H](CCCCN)C(=O)N1CCC[C@H]1C(=O)N[C@H](C(=O)N[C@@H](CCCNC(=N)N)C(=O)N[C@@H](CCCNC(=N)N)C(=O)N[C@@H](CCC(=O)O)C(=O)N[C@H](C(=O)N[C@@H](CCC(=O)O)C(=O)N[C@H](C(=O)O)C(C)C)[C@@H](C)O)[C@@H](C)O` [HPV E6 #35 (modified)] (Biotin-GRWTGRAMSAWKPTRRETEV-OH; C-terminus assumed), for which the Kd worked out at 800 nM in test [2] (PDZ Domain 2, read-out: Peptide Optimal Conc (Kd by titration of the PL peptide)) and 100 nM in test [1] (PDZ KIAA0807(S), PDZ Domain 1, Protein Optimal Conc 0.5, read-out: Peptide Optimal Conc (Kd by titration of the PL peptide)).

As for `CC[C@H](C)[C@H](NC(=O)[C@H](CCC(N)=O)NC(=O)[C@@H](NC(=O)[C@H](Cc1c[nH]cn1)NC(=O)[C@H](CCC(N)=O)NC(=O)[C@H](CC(=O)O)NC(=O)[C@H](CCC(=O)O)NC(=O)[C@H](CC(=O)O)NC(=O)[C@H](Cc1ccccc1)NC(=O)[C@@H]1CCCN1C(=O)[C@H](CCC(=O)O)NC(=O)[C@H](CC(N)=O)NC(=O)[C@H](CCC(=O)O)NC(=O)[C@@H]1CCCN1C(=O)[C@H](CC(=O)O)NC(=O)[C@H](CO)NC(=O)[C@H](CC(=O)O)NC(=O)CCCC[C@@H]1SC[C@@H]2NC(=O)N[C@@H]21)[C@@H](C)O)C(=O)N[C@H](C(=O)N[C@@H](CCCCN)C(=O)N[C@H](C(=O)O)C(C)C)[C@@H](C)O` [PTEN], in test [1] (setting [5]), the Kd came to 300 nM.

For the molecule `CC[C@H](C)[C@H](NC(=O)CNC(=O)[C@H](CO)NC(=O)[C@H](Cc1ccccc1)NC(=O)[C@@H](NC(=O)[C@H](CS)NC(=O)CNC(=O)CNC(=O)[C@H](C)NC(=O)[C@@H]1CCCN1C(=O)[C@@H](NC(=O)[C@@H]1CCCN1C(=O)CCCC[C@@H]1SC[C@@H]2NC(=O)N[C@@H]21)[C@@H](C)CC)[C@@H](C)O)C(=O)N[C@@H](Cc1ccccc1)C(=O)N1CCC[C@H]1C(=O)N[C@H](C(=O)N[C@@H](CC(C)C)C(=O)N[C@H](C(=O)N[C@@H](CO)C(=O)N1CCC[C@H]1C(=O)N[C@@H](CC(C)C)C(=O)O)[C@@H](C)O)[C@@H](C)O` [KIA 1481] (Biotin-PIPAGGCTFSGIFPTLTSPL-OH; C-terminus assumed), in test [3] (PDZ Mint 1, PDZ Domain 1, 2, read-out: Peptide Optimal Conc (non-zero value: Kd by titration of the PL peptide)), the Kd came out at 800 nM.

As for `CC[C@H](C)[C@H](NC(=O)[C@H](CC(=O)O)NC(=O)[C@H](CCC(=O)O)NC(=O)[C@H](CCCNC(=N)N)NC(=O)[C@@H](NC(=O)CCCC[C@@H]1SC[C@@H]2NC(=O)N[C@@H]21)[C@@H](C)O)C(=O)N[C@@H](Cc1ccc(O)cc1)C(=O)N[C@H](C(=O)N[C@@H](CC(N)=O)C(=O)N[C@@H](Cc1ccc(O)cc1)C(=O)N1CCC[C@H]1C(=O)N[C@H](C(=O)N[C@@H](Cc1ccccc1)C(=O)N[C@@H](CO)C(=O)N[C@@H](CCCNC(=N)N)C(=O)N[C@@H](CCCNC(=N)N)C(=O)N1CCC[C@H]1C(=O)N[C@@H](CCCCN)C(=O)N[C@H](C(=O)N[C@@H](CCCNC(=N)N)C(=O)N[C@H](C(=O)O)C(C)C)[C@@H](C)O)[C@@H](C)O)C(C)C` [DNAM-1] (Biotin-TREDIYVNYPTFSRRPKTRV-OH; C-terminus assumed), the Kd in test [2] (Peptide Optimal Conc (Kd by titration of the PL peptide), PDZ Domain 1) amounted to 3000 nM; in test [1] (Peptide Optimal Conc (Kd by titration of the PL peptide), PDZ KIAA807), 2000 nM; in test [1] (Peptide Optimal Conc (Kd by titration of the PL peptide), PDZ KIAA0807(S), PDZ Domain 1) it was 2000 nM; in test [4] (Peptide Optimal Conc (Kd by titration of the PL peptide), PDZ MUPP-1, PDZ Domain 10) it was 2500 nM.
